Source: article PMC12467068, “Design, Synthesis, and Computational Insights into PKMYT1 Inhibitors for the Treatment of Breast Cancer” (Biomedicines, 2025)

What was measured:
[1] = target: T1, PKMYT1 (Homo sapiens, UniProt Q99640); experiment: PKMYT1 enzyme inhibition assay (LanthaScreen Eu kinase binding method); details: mean of two separate experiments
T1 sequence (Q99640 1-499): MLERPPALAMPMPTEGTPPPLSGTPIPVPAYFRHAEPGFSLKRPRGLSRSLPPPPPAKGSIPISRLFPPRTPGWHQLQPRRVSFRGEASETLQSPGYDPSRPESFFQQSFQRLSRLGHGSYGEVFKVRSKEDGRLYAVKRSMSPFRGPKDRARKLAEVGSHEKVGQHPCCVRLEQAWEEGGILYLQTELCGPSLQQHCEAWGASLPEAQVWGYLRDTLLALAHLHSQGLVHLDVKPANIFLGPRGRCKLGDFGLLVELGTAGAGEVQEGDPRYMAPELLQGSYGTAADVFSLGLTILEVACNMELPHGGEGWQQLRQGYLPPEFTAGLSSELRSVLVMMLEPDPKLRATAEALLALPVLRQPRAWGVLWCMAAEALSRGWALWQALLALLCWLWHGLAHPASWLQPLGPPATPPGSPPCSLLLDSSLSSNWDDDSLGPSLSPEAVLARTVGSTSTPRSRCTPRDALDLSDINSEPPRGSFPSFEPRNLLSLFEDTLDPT
Method: The PKMYT1 kinase assay was conducted with the LanthaScreen™ Eu kinase binding method, as provided by Thermo Fisher Scientific (Waltham, MA, USA). Initially, compounds were prepared at a concentration of 4 mM in DMSO and subsequently diluted to various concentrations in 1X buffer. […] The plate was then incubated in the dark at 25 °C for 1 h, and fluorescence signals were recorded at 665 nm and 615 nm.

[2] = tested on: HCC1569 cells; experiment: Cell proliferation assay (CCK-8), HCC1569; type: cell-based; details: for IC50: Homo sapiens, HCC1569, 120 h, CCNE1-amplified breast cancer cells, 5-day incubation, mean ± SD, n = 3
Method: (§1) HCC1569 and OVCAR3 cells (2 × 10^3/well) were seeded in 96-well plates and cultured for 24 h at 37 °C, 5% CO2. Compounds at varying concentrations were added, followed by 5-day incubation. Cell viability was assessed using Cell Counting Kit-8 (CCK-8) with absorbance measurement at 450 nm. HCC1569 (BNCC341698) was purchased from BNCC and OVCAR3 (CL-0178) was purchased from Procell.

[3] = tested on: OVCAR3 cells; experiment: Cell proliferation assay (CCK-8), OVCAR3; type: cell-based; details: for IC50: Homo sapiens, OVCAR-3, 120 h, CCNE1-amplified ovarian cancer cells, 5-day incubation, mean ± SD, n = 3
Method: as §1

[4] = tested on: BEAS-2B cells; experiment: Anti-proliferative activity in normal lung epithelial cells BEAS-2B; type: cell-based; details: Homo sapiens, BEAS-2B; lung epithelial cells; mean ± SD, n = 3
[5] = tested on: A549 cells; experiment: Anti-proliferative activity in low-expressing CCNE1 cells A549; type: cell-based; details: Homo sapiens, A549; lung cancer cells, low CCNE1 expression; mean ± SD, n = 3

Row | Structure (SMILES) | IC50 [1] [nM] | IC50 [2] [µM] | IC50 [3] [nM] | further results
1 | Cc1ccc(O)c(C)c1NC(=O)c1cnc(Nc2ccc(N3CCOCC3)cc2)nc1N [MY-10, 4-amino-2-((4-morpholinophenyl)amino)-N-(3-hydroxy-2,6-dimethylphenyl)pyrimidine-5-carboxamide] | 8.6 | 2.95 ± 0.32 | 810 ± 60 | –
2 | Cc1ccc(O)c(C)c1NC(=O)c1cnc(Nc2ccc3scnc3c2)nc1N [MY-20, 4-amino-2-(benzo[d]thiazol-5-ylamino)-N-(3-hydroxy-2,6-dimethylphenyl)pyrimidine-5-carboxamide] | 5.7 | 3.54 ± 0.21 | 600 ± 90 | –
3 | Cc1ccc(O)c(C)c1NC(=O)c1cnc(Nc2ccccc2Cl)nc1N [MY-2, 4-amino-2-((2-chlorophenyl)amino)-N-(3-hydroxy-2,6-dimethylphenyl)pyrimidine-5-carboxamide] | 150 | – | – | –
4 | Cc1cc2c(C(N)=O)c(N)n(-c3c(C)ccc(O)c3C)c2nc1C [RP-6306, reference compound] | – | 0.11 ± 0.02 | 90 ± 10 | IC50 [4]: 2600 ± 540 nM; IC50 [5]: 1450 ± 230 nM
5 | Cc1ccc(O)c(C)c1NC(=O)c1cnc(Nc2ccccc2)nc1 [Compound M1] | 220 | – | – | –
6 | Cc1ccc(O)c(C)c1NC(=O)c1cnc(Nc2cccc(Cl)c2)nc1N [MY-3, 4-amino-2-((3-chlorophenyl)amino)-N-(3-hydroxy-2,6-dimethylphenyl)pyrimidine-5-carboxamide] | 17 | – | – | –
7 | Cc1ccc(O)c(C)c1NC(=O)c1cnc(Nc2ccc3occc3c2)nc1N [MY-21, 4-amino-2-(benzofuran-5-ylamino)-N-(3-hydroxy-2,6-dimethylphenyl)pyrimidine-5-carboxamide] | 12 | – | – | –
8 | Cc1ccc(O)c(C)c1NC(=O)c1cnc(Nc2ccc3ccoc3c2)nc1N [MY-18, 4-amino-2-(benzofuran-6-ylamino)-N-(3-hydroxy-2,6-dimethylphenyl)pyrimidine-5-carboxamide] | 8.5 | 6.97 ± 1.09 | 3310 ± 180 | –
9 | Cc1ccc(O)c(C)c1NC(=O)c1cnc(Nc2ccc(-c3ccccc3)cc2)nc1N [MY-9, 4-amino-2-([1,1′-biphenyl]-4-ylamino)-N-(3-hydroxy-2,6-dimethylphenyl)pyrimidine-5-carboxamide] | 32 | – | – | –
10 | Cc1ccc(O)c(C)c1NC(=O)c1cnc(Nc2ccc(N3CCN(C)CC3)cc2)nc1N [MY-11, 4-amino-2-((4-(4-methylpiperazin-1-yl)phenyl)amino)-N-(3-hydroxy-2,6-dimethylphenyl)pyrimidine-5-carboxamide] | 7.1 | 3.56 ± 0.59 | 2120 ± 330 | –
11 | Cc1ccc(O)c(C)c1NC(=O)c1cnc(Nc2ccc3c(c2)CN(C)C3=O)nc1N [MY-17, 4-amino-2-((2-methyl-1-oxoisoindolin-5-yl)amino)-N-(3-hydroxy-2,6-dimethylphenyl)pyrimidine-5-carboxamide] | 3.3 | > 8 | 980 ± 70 | –
12 | Cc1ccc(O)c(C)c1NC(=O)c1cnc(Nc2ccc3ncsc3c2)nc1N [MY-19, 4-amino-2-(benzo[d]thiazol-6-ylamino)-N-(3-hydroxy-2,6-dimethylphenyl)pyrimidine-5-carboxamide] | 3.5 | 3.14 ± 0.28 | 1250 ± 60 | –

More lines, main results first:

Row | IC50 [1] [nM] | IC50 [2] [µM] | IC50 [3] [nM] | Structure (SMILES) | further results
13 | 20 | – | – | Cc1ccc(O)c(C)c1NC(=O)c1cnc(Nc2ccc(F)cc2)nc1N [MY-5, 4-amino-2-((4-fluorophenyl)amino)-N-(3-hydroxy-2,6-dimethylphenyl)pyrimidine-5-carboxamide] | –
14 | 16 | – | – | Cc1ccc(O)c(C)c1NC(=O)c1cnc(Nc2ccc(Cl)cc2)nc1N [MY-4, 4-amino-2-((4-chlorophenyl)amino)-N-(3-hydroxy-2,6-dimethylphenyl)] | –
15 | 36 | – | – | Cc1ccc(O)c(C)c1NC(=O)c1cnc(Nc2ccc(Br)cc2)nc1N [MY-6, 4-amino-2-((4-bromophenyl)amino)-N-(3-hydroxy-2,6-dimethylphenyl)pyrimidine-5-carboxamide] | –
16 | 7.9 | > 8 | > 8000 | Cc1ccc(O)c(C)c1NC(=O)c1cnc(Nc2ccc(P(C)(C)=O)cc2)nc1N [MY-13, 4-amino-2-((4-(dimethylphosphoryl)phenyl)amino)-N-(3-hydroxy-2,6-dimethylphenyl)pyrimidine-5-carboxamide] | anti-proliferative activity (in words) ([2]; HCC1569): complete loss of activity; anti-proliferative activity (in words) ([3]; OVCAR3): complete loss of activity
17 | 15 | – | – | Cc1ccc(O)c(C)c1NC(=O)c1cnc(Nc2ccc(C(=O)N(C)C)cc2)nc1N [MY-15, 4-amino-2-((4-(dimethylcarbamoyl)phenyl)amino)-N-(3-hydroxy-2,6-dimethylphenyl)pyrimidine-5-carboxamide] | –
18 | 5.1 | 6.35 ± 0.31 | 740 ± 110 | Cc1ccc(O)c(C)c1NC(=O)c1cnc(Nc2ccc([N+](=O)[O-])cc2)nc1N [MY-12, 4-amino-2-((4-nitrophenyl)amino)-N-(3-hydroxy-2,6-dimethylphenyl)pyrimidine-5-carboxamide] | –
19 | 28 | – | – | Cc1ccc(Nc2ncc(C(=O)Nc3c(C)ccc(O)c3C)c(N)n2)cc1 [MY-7, 4-amino-2-(p-tolylamino)-N-(3-hydroxy-2,6-dimethylphenyl)pyrimidine-5-carboxamide] | –
20 | 26 | – | – | Cc1ccc(O)c(C)c1NC(=O)c1cnc(Nc2ccccc2)nc1N [MY-1, 4-amino-2-(phenylamino)-N-(3-hydroxy-2,6-dimethylphenyl)pyrimidine-5-carboxamide] | –
21 | 46 | – | – | Cc1ccc(O)c(C)c1NC(=O)c1cnc(Nc2ccc(C(C)C)cc2)nc1N [MY-8, 4-amino-2-((4-isopropylphenyl)amino)-N-(3-hydroxy-2,6-dimethylphenyl)pyrimidine-5-carboxamide] | –
22 | 6.1 | > 8 | 1190 ± 90 | Cc1ccc(O)c(C)c1NC(=O)c1cnc(Nc2ccc(C(=O)N3CCOCC3)cc2)nc1N [MY-16, 4-amino-2-((4-(morpholine-4-carbonyl)phenyl)amino)-N-(3-hydroxy-2,6-dimethylphenyl)pyrimidine-5-carboxamide] | –
